Results reported in a compilation of properties of binary mixtures (doi:10.1021/acs.jced.6b00596).

Assay: xn = mol fraction of the nth substance listed
Settings: 100 kPa

CCCCCCCC[P+](CC)(CC)CC.O=[N+]([O-])c1c[n-]cn1 + COCCOCCOCCOCCOC
viscosity [mPa·s]
Settings | 278.15 K | 283.15 K | 288.15 K | 293.15 K | 298.15 K | 303.15 K | 308.15 K | 313.15 K | 318.15 K | 323.15 K
x1 = 0.499 | 77 | 60 | – | – | – | – | – | – | – | –
x1 = 0.599 | – | 93 | 72 | 56 | – | – | – | – | – | –
x1 = 0.699 | – | 153 | – | 87 | 69 | 55 | – | – | – | –
x1 = 0.8 | 385 | 274 | 198 | 148 | 113 | 88 | 70 | 57 | – | –
x1 = 0.9 | 700 | 481 | 337 | 243 | – | 137 | 107 | 85 | 69 | 56
x1 = 1 | – | 838 | – | 398 | 286 | 212 | 160 | 124 | 98 | 78

CCCC[P+](CC)(CC)CC.Cc1ncc([N+](=O)[O-])[n-]1 + COCCOCCOCCOCCOC
viscosity [mPa·s]
Settings | 278.15 K | 283.15 K | 288.15 K | 293.15 K | 298.15 K | 303.15 K | 308.15 K | 313.15 K | 318.15 K | 323.15 K
x2 = 0.048 | – | 975 | 634 | 428 | 299 | 215 | – | 121 | 94 | 74
x2 = 0.102 | 972 | – | 421 | 291 | – | 153 | 116 | – | 71 | 57
x2 = 0.201 | 516 | 350 | 243 | 175 | – | 99 | 77 | 62 | – | –
x2 = 0.299 | 258 | 183 | 134 | 100 | 76 | 60 | – | – | – | –
x2 = 0.401 | 134 | – | 74 | 57 | – | – | – | – | – | –
x2 = 0.501 | 74 | – | – | – | – | – | – | – | – | –

COCCOCCOCCOCCOC + CCCCCC[n+]1ccn(C)c1.O=S(=O)([N-]S(=O)(=O)C(F)(F)F)C(F)(F)F
viscosity [mPa·s]
Settings | x1 = 0.099 | x1 = 0.19 | x1 = 0.276 | x1 = 0.413 | x1 = 0.544
278.15 K | 171 | 130 | 109 | 78 | 50
283.15 K | 126 | 97 | 81 | 60 | –
288.15 K | – | 74 | 63 | – | –
293.15 K | 74 | 57 | – | – | –

CCC=C[n+]1ccn(C)c1C.O=[N+]([O-])c1cn[n-]c1 + COCCOCCOCCOCCOC
viscosity [mPa·s]
Settings | 278.15 K | 283.15 K | 288.15 K | 293.15 K | 298.15 K | 303.15 K | 308.15 K | 313.15 K | 318.15 K | 323.15 K
x1 = 0.4 | 70 | 51 | – | – | – | – | – | – | – | –
x1 = 0.5 | 139 | 97 | 70 | 53 | – | – | – | – | – | –
x1 = 0.601 | – | 176 | 121 | – | 65 | – | – | – | – | –
x1 = 0.701 | 622 | 385 | 249 | 169 | – | 89 | 69 | 53 | – | –
x1 = 0.801 | 1280 | 737 | 447 | 288 | 195 | – | 101 | 77 | 60 | –
x1 = 0.9 | 2810 | – | – | 525 | 338 | 228 | 161 | – | 89 | 70
x1 = 0.952 | – | 2200 | – | 706 | – | 289 | 204 | 140 | 104 | –

CCCn1cc[n+](C)c1C.O=[N+]([O-])c1cn[n-]c1 + COCCOCCOCCOCCOC
viscosity [mPa·s]
Settings | 278.15 K | 283.15 K | 288.15 K | 293.15 K | 298.15 K | 303.15 K | 308.15 K | 313.15 K | 318.15 K | 323.15 K
x2 = 0.05 | 5420 | 2660 | 1400 | 798 | 487 | 314 | 213 | 150 | 111 | 84
x2 = 0.1 | 3220 | – | – | 552 | 350 | 234 | 163 | 118 | 90 | 70
x2 = 0.201 | 1300 | – | – | 287 | 194 | 137 | 100 | – | 59 | –
x2 = 0.302 | 546 | 338 | 218 | 149 | 106 | 79 | 61 | – | – | –
x2 = 0.399 | – | 167 | 115 | 83 | – | – | – | – | – | –
x2 = 0.499 | 125 | – | 64 | – | – | – | – | – | – | –
x2 = 0.6 | 65 | – | – | – | – | – | – | – | – | –

CCCCCC[n+]1ccn(C)c1.O=S(=O)([N-]S(=O)(=O)C(F)(F)F)C(F)(F)F + COCCOCCOCCOCCOC
x2 = 0
Settings | viscosity [mPa·s]
278.15 K | 204
283.15 K | 151
288.15 K | 115
293.15 K | 89

CC(=O)[O-].CCCCCCCCCCCCCC[P+](CCCCCC)(CCCCCC)CCCCCC + COCCOCCOCCOCCOC
viscosity [mPa·s]
Settings | 278.15 K | 283.15 K | 288.15 K | 293.15 K | 298.15 K | 303.15 K | 308.15 K | 313.15 K | 318.15 K | 323.15 K
x2 = 0.103 | 1160 | 789 | – | 392 | – | 216 | 166 | – | 103 | 84
x2 = 0.207 | – | – | 332 | 244 | 184 | 142 | 112 | 89 | 73 | 60
x2 = 0.299 | 401 | 291 | 215 | 162 | 125 | 99 | 79 | 64 | 53 | –
x2 = 0.4 | 257 | 191 | – | 111 | – | 70 | 57 | – | – | –
x2 = 0.499 | – | 121 | 92 | 73 | 58 | – | – | – | – | –

CCCCCC[n+]1ccn(C)c1C.O=S(=O)([N-]S(=O)(=O)C(F)(F)F)C(F)(F)F + COCCOCCOCCOCCOC
Settings | viscosity [mPa·s]
278.15 K, x2 = 0 | 485
278.15 K, x2 = 0.102 | 370
278.15 K, x2 = 0.205 | 251
278.15 K, x2 = 0.306 | 161
278.15 K, x2 = 0.399 | 109
278.15 K, x2 = 0.499 | 70
278.15 K, x2 = 0.599 | 48
283.15 K, x2 = 0 | 335
283.15 K, x2 = 0.102 | 258
283.15 K, x2 = 0.205 | 177
283.15 K, x2 = 0.306 | 116
283.15 K, x2 = 0.399 | 81
283.15 K, x2 = 0.499 | 53
288.15 K, x2 = 0 | 236
288.15 K, x2 = 0.102 | 184
288.15 K, x2 = 0.205 | 129
288.15 K, x2 = 0.306 | 86
288.15 K, x2 = 0.399 | 61
293.15 K, x2 = 0 | 172
293.15 K, x2 = 0.205 | 96
298.15 K, x2 = 0.205 | 74
303.15 K, x2 = 0 | 99
303.15 K, x2 = 0.102 | 80
303.15 K, x2 = 0.205 | 58
308.15 K, x2 = 0 | 78
313.15 K, x2 = 0 | 63
313.15 K, x2 = 0.102 | 52

CCCCCCCCCCCCCC[P+](CCCCCC)(CCCCCC)CCCCCC.O=[N+]([O-])c1c[n-]cn1 + COCCOCCOCCOCCOC
viscosity [mPa·s]
Settings | 278.15 K | 283.15 K | 288.15 K | 293.15 K | 298.15 K | 303.15 K | 308.15 K | 313.15 K | 318.15 K | 323.15 K
x2 = 0.189 | – | – | 726 | 522 | 384 | 290 | 222 | 173 | 138 | 111
x2 = 0.404 | 443 | 324 | 240 | 180 | 135 | – | 85 | 70 | 57 | –

CCCCCCCC[P+](CC)(CC)CC.O=[N+]([O-])c1cn[n-]c1 + COCCOCCOCCOCCOC
viscosity [mPa·s]
Settings | 278.15 K | 283.15 K | 288.15 K | 293.15 K | 298.15 K | 303.15 K | 308.15 K | 313.15 K | 318.15 K | 323.15 K
x2 = 0 | 1340 | – | – | 398 | 282 | 207 | 155 | 119 | – | 75
x2 = 0.051 | 1010 | 666 | 452 | 317 | 229 | – | 130 | 101 | 80 | 65
x2 = 0.102 | 693 | 471 | – | 234 | 172 | 130 | 101 | 80 | 64 | 52
x2 = 0.199 | 395 | 277 | 199 | 147 | 112 | 87 | – | – | – | –
x2 = 0.3 | 229 | 166 | 123 | 94 | 73 | 58 | – | – | – | –
x2 = 0.404 | 129 | – | 74 | 59 | – | – | – | – | – | –
x2 = 0.503 | – | 60 | – | – | – | – | – | – | – | –

CCCCCCCCCCCC[P+](CCCC)(CCCC)CCCC.c1c[n-]nn1 + COCCOCCOCCOCCOC
viscosity [mPa·s]
Settings | x2 = 0.062 | x2 = 0.123 | x2 = 0.155 | x2 = 0.214 | x2 = 0.305 | x2 = 0.395 | x2 = 0.495 | x2 = 0.596
278.15 K | 1980 | 1230 | 907 | 671 | – | 226 | 131 | –
283.15 K | 1260 | 809 | 608 | 458 | 256 | 165 | 98 | 57
288.15 K | 824 | – | 419 | 320 | 186 | – | 75 | –
293.15 K | 557 | – | 297 | 231 | 139 | 95 | – | –
298.15 K | 389 | 276 | 218 | 171 | – | 74 | – | –
303.15 K | 280 | 203 | 164 | 130 | 84 | 59 | – | –
